Results as given in patent US10317393B2, “Alkynyl sugar analogs for labeling and visualization of glycoconjugates in cells” (Academia Sinica, priority 2007, dated 2019).

What was measured:
Jurkat cells = assay: Flow cytometry of cell surface labeling with fluorogenic coumarin probe 7; format: cell-based, human; conditions: 200 micromolar Fuc analogs or 25 micromolar ManNAc analogs, 3 days
Source text: FIGS. 3A and 3B show tagging of cell surface glycans by derivatized alkynyl sugar analogs and subsequent labeling with probe 3-azido-7-hydroxycoumarin 7. Shown is flow cytometry analysis of Jurkat cells tagged with 200 micromolar derivatized alkynyl Fuc 1 shown in FIG. 3A or 25 micromolar alkynyl-derivatized ManNAc 4 shown in FIG. 3B for 3 days. The fluorescence intensity was detected after labeling with a coumarin probe 7. Filled histogram, cells treated with control sugar analog 3 or 5; open histogram, cell treated with alkynyl-derivatized sugar 1 or 4.
Recently, another click-activated azido-derivatized fluorescent probe, based on coumarin, was reported in the literature. In one aspect of the disclosure, the fluorogenic probe, 3-azido-7-hydroxycoumarin 7, is used as the coupling partner for alkynyl tags on labeled glycoconjugates.
Jurkat cells were cultivated (2×10^6/10 ml) in RPMI medium 1640 supplemented with 10% FCS and various concentrations of peracetylated alkynyl sugars 1, 2, or 4 or native sugars 3 or 5, for 1-3 days at 37° C. […] Data were acquired by BD LSR II with FACSDiva software, and were analyzed by CellQuestPro software (BD Biosciences). Detection of fluorescent adduct with probe 7 was monitored with a 408 nm laser and a 440/40 bandpass filter for excitation and emission, respectively.

Hep3B cells = assay: Pulse-chase time-lapse microscopy of fucosylated glycans; format: cell-based, human; conditions: 30 minute pulse, biotin/streptavidin-FITC
Protocol: Additional cellular structures are visualized using alternative labeling systems (e.g., WGA lectin used to visualize Golgi apparatus, and Hoechst used to visualize nucleus).
Pulse-chased MOE experiments entail growing cells of interest to log-phase levels and then exposing them to the sugar analogs in the growth medium, as prescribed by standard MOE, but only for a 30 minute pulse, before replenishing with fresh medium devoid of sugars. Post sugar-pulse, the cells are grown for various lengths of time before analysis.
Cells of interest may be grown to log phase and then presented with various derivatized sugars for a limited period of time; for example, 30 minutes. After the limited period of time, the cells are no longer presented with the various sugars. The cells with glycoconjugates incorporating various tagged sugars may then be visualized over time through secondary detection and/or microscopy in relation to various intracellular and intercellular structures, in order to collect data on the trafficking and relative location of tagged and labeled glycoconjugates.

## 1,2,3,4-tetraacetyl alkynyl fucose [alkynyl Fuc 1]
Jurkat cells
  fluorescent labeling after reacting with 3-azido-7-hydroxycoumarin probe: significant fluorescent labeling
Hep3B cells
  signal for fucosylated glycans co-localized with Golgi marker after pulse: co-localized yellow signal as early as 2 h
